Measured values published in US7816353B2 (Exelixis, Inc., priority 2003, dated 2010).

Legend:
Assay type in all cases: biochemical
Akt1 = target: T1, Akt1 (Homo sapiens, UniProt P31749); experiment: Akt1 Kinase Assay (Luciferase-Coupled Chemiluminescent Kinase assay, LCCA); details: human Akt1 kinase domain residues R144-A480, activated with PDK1; 1 μM ATP; read-out: Akt-1 IC50
T1 construct: made in house
Description: (§1) Kinase activity and compound inhibition are investigated using one or more of the three assay formats described below. The ATP concentrations for each assay are selected to be close to the Michaelis-Menten constant (KM) for each individual kinase. Dose-response experiments are performed at 10 different inhibitor concentrations in a 384-well plate format. The data are fitted to four-parameter equation (2) below; where Y is the observed signal, X is the inhibitor concentration, Min is the background signal in the absence of enzyme (0% enzyme activity), Max is the signal in the absence of inhibitor (100% enzyme activity), IC50 is the inhibitor concentration at 50% enzyme inhibition and H represents the empirical Hill's slope to measure the cooperativity. Typically H is close to unity. Y=Min+(Max−Min)/(1+(X/IC50)^H) Equation (2) p70S6 Kinase Assay
Biochemical activity of Akt1 kinase was assessed using a Luciferase-Coupled Chemiluminescent Kinase assay (LCCA) format. Kinase activity was measured as the percent ATP remaining following the kinase reaction. Remaining ATP was detected by luciferase-luciferin-coupled chemiluminescence. Specifically, the reaction was initiated by mixing test compounds, 1 μM ATP, 5 μM crosstide peptide and 1.3 nM Akt1 (baculovirus expressed human Akt1 kinase domain residues R144-A480, activated with PDK1) in a 20 uL assay buffer (20 mM Tris-HCL pH 7.5, 10 mM MgCl2, 0.01% Triton X-100, 1 mM DTT, 3 mM MnCl2). The mixture is incubated at ambient temperature for 3 hours after which 20 μL luciferase-luciferin mix is added and the chemiluminescent signal read using a Wallac Victor2 reader. The luciferase-luciferin mix consists of 50 mM HEPES, pH 7.8, 8.5 μg/mL oxalic acid (pH 7.8), 5 (or 50) mM DTT, 0.4% Triton X-100, 0.25 mg/mL coenzyme A, 63 uM AMP, 28 μg/mL luciferin and 40,000 units/mL luciferase.

PDK1 = target: T2, PDK1 (Homo sapiens, UniProt O15530); experiment: PDK1 Kinase Assay (Luciferase-Coupled Chemiluminescent Kinase assay, LCCA); details: human PDK1 kinase domain residues M51-T359; 0.5 μM ATP; read-out: PDK-1 IC50
T2 construct: human PDK1 kinase domain residues M51-T359; made in house
T2 sequence (O15530 51-359): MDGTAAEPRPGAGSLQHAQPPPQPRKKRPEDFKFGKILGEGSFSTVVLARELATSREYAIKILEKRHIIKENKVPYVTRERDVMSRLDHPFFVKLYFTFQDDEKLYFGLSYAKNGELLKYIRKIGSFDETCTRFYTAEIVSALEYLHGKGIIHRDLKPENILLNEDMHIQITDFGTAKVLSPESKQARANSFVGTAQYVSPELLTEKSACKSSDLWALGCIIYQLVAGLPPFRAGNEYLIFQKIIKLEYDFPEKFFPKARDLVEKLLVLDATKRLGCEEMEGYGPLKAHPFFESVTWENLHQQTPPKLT
Description: as §1
Biochemical activity of PDK1 kinase was assessed using a Luciferase-Coupled Chemiluminescent Kinase assay (LCCA) format. Kinase activity was measured as the percent ATP remaining following the kinase reaction. Remaining ATP was detected by luciferase-luciferin-coupled chemiluminescence. Specifically, the reaction was initiated by mixing test compounds, 0.5 μM ATP, 0.6 μM PDKtide peptide and 6 nM PDK1 (baculovirus expressed human PDK1 kinase domain residues M51-T359) in a 20 uL assay buffer (20 mM Hepes pH 7.5, 1 mM CaCl2, 0.03% CHAPS, 2 mM DTT). The mixture is incubated at ambient temperature for 3 hours after which 20 μL luciferase-luciferin mix is added and the chemiluminescent signal read using a Wallac Victor2 reader. The luciferase-luciferin mix consists of 50 mM HEPES, pH 7.8, 8.5 μg/mL oxalic acid (pH 7.8), 5 (or 50) mM DTT, 0.4% Triton X-100, 0.25 mg/mL coenzyme A, 63 uM AMP, 28 μg/mL luciferin and 40,000 units/mL luciferase.

p70S6K = target: T3, p70S6K (Homo sapiens, UniProt P23443, T412E); experiment: p70S6 Kinase Assay (Luciferase-Coupled Chemiluminescent Kinase assay, LCCA); details: human p70S6 kinase domain residues 1-421, T412E; 5 μM ATP; read-out: p70S6K IC50
T3 construct: human p70S6 kinase domain residues 1-421, containing a T412E mutation; made in house
Summary of the method: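 Luciferase-coupled chemiluminescence measured percent ATP remaining after the 2 h kinase reaction at ambient temperature, with ATP near the kinase's KM. Ten inhibitor concentrations were tested. IC50 was obtained from a Hill-equation fit.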

T1 sequence (P31749 144-480): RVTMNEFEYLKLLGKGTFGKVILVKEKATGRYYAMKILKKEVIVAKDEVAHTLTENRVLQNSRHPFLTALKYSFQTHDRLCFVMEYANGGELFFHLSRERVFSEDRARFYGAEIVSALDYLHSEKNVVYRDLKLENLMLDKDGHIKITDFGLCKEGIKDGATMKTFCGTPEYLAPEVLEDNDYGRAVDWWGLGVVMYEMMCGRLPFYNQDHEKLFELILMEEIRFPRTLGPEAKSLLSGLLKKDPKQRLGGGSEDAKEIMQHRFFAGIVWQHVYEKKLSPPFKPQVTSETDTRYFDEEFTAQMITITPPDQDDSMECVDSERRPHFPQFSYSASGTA
T3 sequence (P23443 1-421 T412E): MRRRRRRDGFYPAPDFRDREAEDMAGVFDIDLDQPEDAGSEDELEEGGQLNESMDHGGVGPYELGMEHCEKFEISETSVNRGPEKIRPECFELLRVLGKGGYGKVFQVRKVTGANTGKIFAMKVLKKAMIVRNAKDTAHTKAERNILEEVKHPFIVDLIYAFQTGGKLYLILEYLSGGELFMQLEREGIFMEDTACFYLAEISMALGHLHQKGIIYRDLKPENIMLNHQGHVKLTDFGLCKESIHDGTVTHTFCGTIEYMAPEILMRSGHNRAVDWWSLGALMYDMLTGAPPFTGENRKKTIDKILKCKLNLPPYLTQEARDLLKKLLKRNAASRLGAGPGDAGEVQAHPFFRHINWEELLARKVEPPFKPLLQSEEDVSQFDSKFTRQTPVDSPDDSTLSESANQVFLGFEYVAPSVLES

SMILES | IC50 (Akt1) [nM] | IC50 (PDK1) [nM] | IC50 (p70S6K) [nM]
CSc1nc(N)nc(SCC(=O)Nc2nc(C)cs2)c1C#N [Example 25, 2-{[2-amino-5-cyano-6-(methylthio)pyrimidin-4-yl]thio}-N-(4-methyl-1,3-thiazol-2-yl)acetamide] | > 2000 | > 2000 | < 50
CSc1nc(N)nc(SCC(=O)Nc2ccc(F)c(C(F)(F)F)c2)c1C#N [Example 31, 2-{[2-amino-5-cyano-6-(methylthio)pyrimidin-4-yl]thio}-N-[4-fluoro-3-(triuoromethyl)phenyl]acetamide] | > 2000 | > 2000 | < 50
CSc1nc(COC(=O)Nc2cccc(C(F)(F)F)c2)cc(NCc2ccccc2)n1 [Example 40, {2-(methylthio)-6-[(phenylmethyl)amino]pyrimidin-4-yl}methyl [3-(trifluoromethyl)phenyl]carbamate] | > 2000 | > 2000 | < 50
CSc1nc(N)nc(SCC(=O)Nc2nccs2)c1C#N [Example 27, 2-{[2-amino-5-cyano-6-(methylthio)pyrimidin-4-yl]thio}-N-1,3-thiazol-2-ylacetamide] | > 2000 | > 2000 | < 50
CSc1cc(OCC(=O)Nc2cccc(C(F)(F)F)c2)nc(N)n1 | > 2000 | > 2000 | < 50
CSc1nc(N)nc(SCC(=O)Nc2cccc(C(F)(F)F)n2)c1C#N [Example 36, 2-{[2-amino-5-cyano-6-(methylthio)pyrimidin-4-yl]thio}-N-[6-(trifluoromethyl)pyridin-2-yl]acetamide] | > 2000 | > 2000 | < 50
Nc1cc(SCC(=O)Nc2cccc(C(F)(F)F)c2)nc(N)n1 [Example 33, 2-[(2,6-diaminopyrimidin-4-yl)thio]-N-[3-(trifluoromethyl)phenyl]acetamide] | > 2000 | > 2000 | < 50
